Assay results taken from US8686035B2, “Composition and method for promoting hair growth” (R-Tech Ueno, Ltd., priority 2003, dated 2014).
Several values for one entry are separate records, joined by “and”; a condition that tells them apart may be missing. Equal entries are not always repeated. Entries after “also recorded” stand apart in the source; their conditions may differ.

Experiments:
Assay type in all cases: in vivo
C3H/HeN mice [1] = assay: Thickness of grown-up hair (Example 3); settings: 0.1% treated area, hairs collected 31 days after start of treatment of Example 1, n=3
Procedure: 31 days after the start of the treatment conducted in Example 1, grown-up hairs in the treated area and hairs in the untreated area (i.e. non clipped area) were collected, respectively. Enlarged photomicrographs of the collected hairs were taken. Thickness of the randomly selected each ten hairs were measured and calculated the average.

C3H/HeN mice [2] = assay: Hair growth after topical application to clipped dorsal skin, macroscopic score (Example 1); parameters: key to Hair Growth Score: −: no hair growth observed; ±: hair growth≦10% of the clipped area; +: hair growth 10-40% of the clipped area; ++: hair growth 40-80% of the clipped area; +++: hair growth ≧80% of the clipped area; settings: for Hair Growth Score / animals on which hair growth was observed: topical once daily; for Hair Growth Score: individual animals; for animals on which hair growth was observed: 0.1%, 30 days treatment period, 3 animals per group
Procedure: (§1) Eight-weeks-old male C3H/HeN mice were used. The hair on the back was clipped by electric clipper so that the hair in the clipped area was removed as much as possible. Three days after the clipping, mice without visible scratches were selected and used in this study. Each group consisted of 3 animals. After group assignment, the groups were housed separately in aluminum cages (3 animals/cage, 180 mm W×300 mm D×130 mm H; Nippon Cage, Ltd., Japan).
(§2) Each test compound was dissolved in 70% (w/w) aqueous ethanol. Each dose formulation of test compound was evenly applied topically once daily (100 μL per mouse) to the clipped dorsal skin area (approximately 2×4 cm), except for Saturday and Sunday, for 30 days. The control group received an equal amount of the vehicle in the same manner.
Macroscopic observations of the hair growth were performed 14, 16, 18, 21, 23, 25, 28 and 30 days after the start of the treatment. Hair growth was scored according to the scale below:
− no hair growth observed
± hair growth≦10% of the clipped area
+ hair growth 10-40% of the clipped area
++ hair growth 40-80% of the clipped area
+++ hair growth ≧80% of the clipped area

C3H/HeN mice [3] = assay: Hair growth after topical application to clipped dorsal skin, macroscopic score (Example 2); parameters: key to Hair Growth Score: −: no hair growth observed; ±: hair growth≦10% of the clipped area; +: hair growth 10-40% of the clipped area; ++: hair growth 40-80% of the clipped area; +++: hair growth ≧80% of the clipped area; settings: topical once daily; for Hair Growth Score: 0.1% in 75% aqueous ethanol, individual animals
Procedure: as §1
as §2, with “Test compound” for “Each test compound”, “in 75%” for “in 70% (w/w)”, “ethanol. The” for “ethanol. Each dose”, “compound (compound E)” for “compound”, “for 23” for “for 30”
Macroscopic observations of the hair growth were performed 14, 16, 18, 21 and 23 days after the start of the treatment. Hair growth was scored according to the scale shown as above. In the 0.1% compound E-treated group, hair growth was observed on 3 out of 3 animals.

[4] = 0.1% in 70% (w/w) aqueous ethanol, day 14 of treatment
[5] = 0.1% in 70% (w/w) aqueous ethanol, day 16 of treatment
[6] = 0.1% in 70% (w/w) aqueous ethanol, day 18 of treatment
[7] = 0.1% in 70% (w/w) aqueous ethanol, day 21 of treatment
[8] = 0.1% in 70% (w/w) aqueous ethanol, day 23 of treatment
[9] = 0.1% in 70% (w/w) aqueous ethanol, day 25 of treatment
[10] = 0.1% in 70% (w/w) aqueous ethanol, day 28 of treatment
[11] = 0.1% in 70% (w/w) aqueous ethanol, day 30 of treatment

Row | SMILES | Hair thickness, μm mean ± SE (C3H/HeN mice [1]) [μm] | Hair Growth Score (C3H/HeN mice [2]; [4]) | Hair Growth Score (C3H/HeN mice [2]; [5]) | Hair Growth Score (C3H/HeN mice [2]; [6]) | Hair Growth Score (C3H/HeN mice [2]; [7]) | Hair Growth Score (C3H/HeN mice [2]; [8]) | Hair Growth Score (C3H/HeN mice [2]; [9]) | Hair Growth Score (C3H/HeN mice [2]; [10]) | Hair Growth Score (C3H/HeN mice [2]; [11]) | animals on which hair growth was observed (C3H/HeN mice [2]) | also measured
1 | CC(C)OC(=O)CCC/C=C\CC1C(O)CC(O)C1CCC1(CCc2ccccc2)OCCO1 (stereo not drawn) [Compound B, 13,14-dihydro-15,15-ethylenedioxy-17-phenyl-18,19,20-trinor-PGF2α isopropyl ester] | 33.3 ± 0.7 | − | − | ± (hair growth≦10% of the clipped area) and − (2×) | ± (hair growth≦10% of the clipped area) | + (hair growth 10-40% of the clipped area) | ++ (hair growth 40-80% of the clipped area); also recorded: + (hair growth 10-40% of the clipped area) | ++ (hair growth 40-80% of the clipped area) | ++ (hair growth 40-80% of the clipped area) |  | Hair Growth Score (C3H/HeN mice [2]; 0.1% in 70% (w/w) aqueous ethanol, day 30 of treatment, listed as compound B): ++ (hair growth 40-80% of the clipped area)
2 | CCCCCCCC1(CCC2C(O)CC(O)C2C/C=C\CCCC(=O)OCC)OCCO1 (stereo not drawn) [Compound E, 13,14-dihydro-15,15-ethylenedioxy-20-ethyl-PGF2α ethyl ester] |  |  |  |  |  |  |  |  |  |  | Hair Growth Score (C3H/HeN mice [3]; day 14 of treatment): −; Hair Growth Score (C3H/HeN mice [3]; day 16 of treatment): −; Hair Growth Score (C3H/HeN mice [3]; day 18 of treatment): ± (hair growth≦10% of the clipped area) (2×) and −; Hair Growth Score (C3H/HeN mice [3]; day 21 of treatment): ++ (hair growth 40-80% of the clipped area); also recorded: + (hair growth 10-40% of the clipped area); Hair Growth Score (C3H/HeN mice [3]; day 23 of treatment): + (hair growth 10-40% of the clipped area); also recorded: ++ (hair growth 40-80% of the clipped area); animals on which hair growth was observed (C3H/HeN mice [3]; 0.1%, 23 days treatment period, 3 animals per group): 3 out of 3
3 | CCCCCCCC1(CCC2C(O)CC(O)C2C/C=C\CCCC(=O)OC(C)C)OCCO1 (stereo not drawn) [Compound A, 13,14-dihydro-15,15-ethylenedioxy-20-ethyl-PGF2α isopropyl ester] | 34.1 ± 1.6 | − | ± (hair growth≦10% of the clipped area) (2×) and − | ± (hair growth≦10% of the clipped area) | + (hair growth 10-40% of the clipped area) | ++ (hair growth 40-80% of the clipped area) | ++ (hair growth 40-80% of the clipped area) | +++ (hair growth ≧80% of the clipped area) | +++ (hair growth ≧80% of the clipped area) |  | hair growth, dose dependence (C3H/HeN mice [2]; 0.01% and 0.1% treated groups): dose-dependent hair growth; Hair Growth Score (C3H/HeN mice [2]; 0.01% in 70% (w/w) aqueous ethanol, day 14 of treatment): −; Hair Growth Score (C3H/HeN mice [2]; 0.01% in 70% (w/w) aqueous ethanol, day 16 of treatment): −; Hair Growth Score (C3H/HeN mice [2]; 0.01% in 70% (w/w) aqueous ethanol, day 18 of treatment): − (2×) and ± (hair growth≦10% of the clipped area); Hair Growth Score (C3H/HeN mice [2]; 0.01% in 70% (w/w) aqueous ethanol, day 21 of treatment): − (2×) and ± (hair growth≦10% of the clipped area); Hair Growth Score (C3H/HeN mice [2]; 0.01% in 70% (w/w) aqueous ethanol, day 23 of treatment): − (2×) and ± (hair growth≦10% of the clipped area); Hair Growth Score (C3H/HeN mice [2]; 0.01% in 70% (w/w) aqueous ethanol, day 25 of treatment): − and + (hair growth 10-40% of the clipped area) (2×); Hair Growth Score (C3H/HeN mice [2]; 0.01% in 70% (w/w) aqueous ethanol, day 28 of treatment): + (hair growth 10-40% of the clipped area); also recorded: ++ (hair growth 40-80% of the clipped area); Hair Growth Score (C3H/HeN mice [2]; 0.01% in 70% (w/w) aqueous ethanol, day 30 of treatment): + (hair growth 10-40% of the clipped area); also recorded: ++ (hair growth 40-80% of the clipped area)
4 | CCCCCCCC(CCC1C(O)CC(O)C1C/C=C\CCCC(=O)OC(C)C)(OC)OC (stereo not drawn) [Compound D, 13,14-dihydro-15,15-dimethoxy-20-ethyl-PGF2α isopropyl ester] |  | − | − (2×) and ± (hair growth≦10% of the clipped area) | − (2×) and ± (hair growth≦10% of the clipped area) | − (2×) and + (hair growth 10-40% of the clipped area) | − (2×) and + (hair growth 10-40% of the clipped area) | − (2×) and + (hair growth 10-40% of the clipped area) | − and ++ (hair growth 40-80% of the clipped area) and ± (hair growth≦10% of the clipped area) | − and ++ (hair growth 40-80% of the clipped area) and ± (hair growth≦10% of the clipped area) | 2 out of 3 | 
5 | CCCCCCCC1(CCC2C(O)CC(O)C2C/C=C\CCCC(=O)OC(C)C)OCCCO1 (stereo not drawn) [Compound C, 13,14-dihydro-15,15-trimethylenedioxy-20-ethyl-PGF2α isopropyl ester] |  | − | − | − (2×) and ± (hair growth≦10% of the clipped area) | − (2×) and ± (hair growth≦10% of the clipped area) | − (2×) and ± (hair growth≦10% of the clipped area) | − (2×) and + (hair growth 10-40% of the clipped area) | − (2×) and + (hair growth 10-40% of the clipped area) | − (2×) and + (hair growth 10-40% of the clipped area) | 1 out of 3 | 
